Measured values published in the Kinase Knowledgebase extract (Sharma et al. 2016).

The compounds below were run against PIK3CG (human) (UniProt P48736) (assay: Assessment of PIK3CG Kinase Activity).
Chain of PIK3CG (human) (P48736 whole entry, looked up): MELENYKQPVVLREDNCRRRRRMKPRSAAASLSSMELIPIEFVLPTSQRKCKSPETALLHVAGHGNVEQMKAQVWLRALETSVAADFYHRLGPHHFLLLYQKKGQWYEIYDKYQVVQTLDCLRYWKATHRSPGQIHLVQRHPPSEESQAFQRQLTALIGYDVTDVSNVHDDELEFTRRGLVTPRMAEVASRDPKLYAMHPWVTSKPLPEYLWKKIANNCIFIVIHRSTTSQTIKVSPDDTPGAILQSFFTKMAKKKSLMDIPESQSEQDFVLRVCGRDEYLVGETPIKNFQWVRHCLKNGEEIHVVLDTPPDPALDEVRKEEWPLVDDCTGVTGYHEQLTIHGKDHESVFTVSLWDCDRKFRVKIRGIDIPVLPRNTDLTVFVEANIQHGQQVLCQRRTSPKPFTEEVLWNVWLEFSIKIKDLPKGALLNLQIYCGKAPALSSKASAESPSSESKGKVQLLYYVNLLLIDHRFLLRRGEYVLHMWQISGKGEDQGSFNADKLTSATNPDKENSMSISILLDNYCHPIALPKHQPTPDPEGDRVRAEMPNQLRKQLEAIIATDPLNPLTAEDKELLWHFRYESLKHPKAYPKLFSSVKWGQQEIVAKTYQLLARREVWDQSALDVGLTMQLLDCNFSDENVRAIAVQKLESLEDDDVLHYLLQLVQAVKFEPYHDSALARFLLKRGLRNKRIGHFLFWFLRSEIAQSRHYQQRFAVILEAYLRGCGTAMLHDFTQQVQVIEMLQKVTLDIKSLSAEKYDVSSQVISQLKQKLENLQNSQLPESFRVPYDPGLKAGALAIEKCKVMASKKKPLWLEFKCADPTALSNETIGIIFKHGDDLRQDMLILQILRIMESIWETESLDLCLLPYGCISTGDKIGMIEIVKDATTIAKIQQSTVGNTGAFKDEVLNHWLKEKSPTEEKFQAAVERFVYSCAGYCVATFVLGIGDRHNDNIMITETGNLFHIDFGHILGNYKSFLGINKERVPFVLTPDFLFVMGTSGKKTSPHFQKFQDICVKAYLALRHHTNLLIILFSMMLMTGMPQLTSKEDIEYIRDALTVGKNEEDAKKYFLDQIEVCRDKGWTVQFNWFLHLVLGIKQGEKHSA

IC50, < 800 nM:
CC(=O)Nc1nc2c(s1)-c1c(cnn1-c1ccc(C(=O)Nc3ccc(C4CCN(C)CC4)cc3)cc1Cl)CC2
CC(=O)Nc1nc2c(s1)-c1c(cnn1-c1ccc(Cl)cc1)C2
CC(=O)Nc1nc2c(s1)-c1c(c([C@H]3CCCO3)nn1-c1ccc(C(=O)N(C)Cc3ccncc3)cc1Cl)CC2
CCS(=O)(=O)c1ncc2c(n1)-c1sc(NC(C)=O)nc1CC2
CC(=O)Nc1nc2c(s1)-c1c(c(C(C)C)nn1-c1ccc(C(=O)N(C)C3CCN(C)CC3)cc1Cl)CC2
CN(C)C(=O)Nc1nc2c(s1)-c1c(cnn1-c1ccccc1)CC2
CC(=O)Nc1nc2c(s1)-c1c(cnn1C(=O)C1CC1)CC2
CCCC(=O)n1cc2c(n1)-c1sc(NC(C)=O)nc1CC2
CC(=O)Nc1nc2c(s1)-c1c(cnn1-c1ccc(C(=O)N3CCc4ccccc4C3)cc1)CC2
CC(=O)Nc1nc2c(s1)-c1c(c(-c3cn(C)cn3)nn1-c1ccccc1)CC2
CC(=O)Nc1nc2c(s1)-c1c(cnn1-c1ccc(C(=O)N3CCC[C@H]3C(=O)O)cc1)CC2
CC(=O)Nc1nc2c(s1)-c1nn(C(=O)c3ccccc3)cc1CC2
CC(=O)Nc1nc2c(s1)-c1c(c(C#C[Si](C)(C)C)nn1-c1ccccc1Cl)CC2
C#CCNC(=O)Cc1ccc(-n2ncc3c2-c2sc(NC(C)=O)nc2CC3)cc1
CN(C)CCCC(=O)Nc1nc2c(s1)-c1c(cnn1-c1ccccc1)CC2
CC(=O)Nc1nc2c(s1)-c1c(cnn1-c1ccc(C(=O)N[C@H]3CC[C@H](N)CC3)cc1)CC2
CC(=O)NCCCC[C@H](NC(=O)c1ccc(-n2ncc3c2-c2sc(NC(C)=O)nc2CC3)c(Cl)c1)C(N)=O
CC(=O)Nc1nc2c(s1)-c1c(cnn1-c1ccc(CC(=O)N(C)CC(C)O)cc1)CC2 (stereo not drawn)
CC(=O)Nc1nc2c(s1)-c1c(cnn1-c1ccc(CC(=O)N3CCN(c4ccncc4)CC3)cc1)CC2
CC(=O)Nc1nc2c(s1)-c1c(c(-c3ccco3)nn1-c1ccccc1Cl)CC2
CC(=O)Nc1nc2c(s1)-c1nn(C(N)=O)cc1CC2
CC(=O)Nc1nc2c(s1)-c1c(cnn1-c1ccc(CC(=O)N(C)CC(=O)N3CCOCC3)cc1)CC2
CC(=O)Nc1nc2c(s1)-c1c(cnn1-c1ccc(C(=O)N(C)CC(=O)N(C)C)cc1)CC2
CC(=O)Nc1nc2c(s1)-c1nc(N3CCCC3=O)ncc1CC2
O=C(NCCN1CCOCC1)Nc1nc2c(s1)-c1c(cnn1-c1ccccc1)CC2
CC(=O)Nc1nc2c(s1)-c1c(cnn1-c1ccc(CC(=O)NC3CCOC3=O)cc1)CC2 (stereo not drawn)
CC(=O)Nc1nc2c(s1)-c1c(c(-c3ccco3)nn1-c1ccccc1Br)CC2
CC(=O)Nc1nc2c(s1)-c1nn(-c3ccccc3F)c(-c3ccco3)c1CC2
CC(=O)Nc1nc2c(s1)-c1c(cnn1-c1cccc(Cl)c1)CC2
CC(=O)Nc1nc2c(s1)-c1c(cnn1-c1ccc(C(=O)NCCN3CCNC3=O)cc1)CC2
CC(=O)Nc1nc2c(s1)-c1c(cnn1-c1ccc(C(=O)N3C[C@@H](C)O[C@@H](C)C3)cc1)CC2
CC(=O)Nc1nc2c(s1)-c1c(cnn1-c1ccc(C(=O)NCCn3ccnc3)cc1)CC2
CN(C)C(=O)Nc1nc2c(s1)-c1nc(N(C)C)ncc1CC2
CC(=O)Nc1nc2c(s1)-c1c(cnn1-c1ccc(CC(=O)N3CCCC(O)C3)cc1)CC2 (stereo not drawn)
CC(=O)Nc1nc2c(s1)-c1c(cnn1-c1ccc(C(=O)N[C@@H](Cc3cccnc3)C(N)=O)cc1Cl)CC2
CC(=O)Nc1nc2c(s1)-c1nn(C3C=CCCC3)cc1CC2 (stereo not drawn)
CC(=O)Nc1nc2c(s1)-c1nn(-c3ccc(C(=O)NC4CCN(C5CCCC5)CC4)cc3Cl)c(-c3ccco3)c1CC2
CC(=O)Nc1nc2c(s1)-c1c(cnn1-c1ccccc1C)CC2
CC(=O)Nc1nc2c(s1)-c1c(cnn1-c1ccc(C(=O)NC(C)(C)CN3CCN(C)CC3)cc1)CC2
NNC(=O)Nc1nc2c(s1)-c1c(cnn1-c1ccccc1)CC2
CC(=O)Nc1nc2c(s1)-c1c(cnn1-c1ccc(C(=O)N[C@H]3CC[C@H](N4CCN(c5ccccc5)CC4)CC3)cc1)CC2
CC(=O)Nc1nc2c(s1)-c1c(c([C@H]3CCCO3)nn1-c1ccccc1Br)CC2
CC(=O)Nc1nc2c(s1)-c1nc(-c3cccc(C)c3)ncc1CC2
COc1ccc(-n2ncc3c2-c2sc(NC(C)=O)nc2CC3)cc1
CC(=O)Nc1nc2c(s1)-c1c(cnn1-c1cccc(F)c1)CC2
CC(=O)Nc1nc2c(s1)-c1c(cnn1-c1ccc(C(=O)NCCCN(C)C)cc1)CC2
CC(=O)Nc1nc2c(s1)-c1c(cnn1-c1ccc(C(=O)Nc3ccc(NC(C)(C)CN(C)C)cc3)cc1)CC2
CC(=O)Nc1nc2c(s1)-c1c(cnn1-c1ccc(C(=O)N3CCC(N4CCOCC4)CC3)cc1)CC2
